Source: patent US8871772B2, “Therapeutic methods and compounds” (Ampio Pharmaceuticals, Inc., priority 2008, dated 2014)

Legend:
Assay type in all cases: cell-based
[1] = tested on: AU565 cells; experiment: Cytotoxicity on confluent AU565 monolayers, cell titer assay
Protocol: To determine whether the decrease in cell titer signal caused by Cpd. 5 was due to the inhibition of proliferation or to cytotoxicity, STTG and AU565 cells were seeded at 10,000 cells/well in 96-well plates and grown until a confluent monolayer was obtained. Under these conditions, the cells should no longer proliferate. The culture medium was IMDM supplemented with 10% FBS. After the cells reached confluence, the culture medium was removed by aspiration and replaced with fresh medium containing the test compounds (see Table 2 below). The cell cultures were incubated for an additional 24 hours in the presence of the added compounds and then the cell titer signal was assayed by adding 20 μl Promega cell titer aqueous one reagent to each well. The plates were incubated at 37° C. for an additional 2 hours to allow the colorimetric assay to develop, and the OD of each well was determined in a microplate reader using a 530 nm filter. The OD of wells containing cell titer reagent in culture medium with no cells was subtracted from the OD of all experimental readings.
The % decrease of the total cell titer signal was determined using the following formula. ((Diluent OD−Experimental OD)/Diluent OD))×100. Data are presented in Table 2 as mean % decrease of cell titer signal of three separate experiments, plus or minus standard deviation. In the mean % decrease column, a positive number means a decrease in cell titer signal, while a negative number means an increase. The p values were calculated versus diluent controls.
This experiment was repeated, except using incubations of 18 hours, instead of 24 hours, in the presence of the compounds and 4 hours, instead of 2 hours, for color development.

[2] = tested on: Akt; experiment: Akt phosphorylation in WM-266-4 melanoma cells, CASE ELISA (S473); conditions: IGF-1 stimulated; for inhibition at 50 µM: WM 266-4, WM-266-4, 50 μM
Protocol: Assays were performed to determine the effect of Cpd. 5 (synthesis described in Example 1) on phosphorylation of Akt in WM-266-4, a metastatic melanoma cell line obtained from ATCC. The WM-266-4 cells were grown in 25 cm^2 flasks using IMDM medium (obtained from Lonza) supplemented with 10% fetal bovine serum (FBS, HyClone) and 1% penicillin/streptomycin solution (Lonza). Cells were removed from the flasks using trypsin/EDTA (Lonza) and counted using trypan blue to establish cell counts. Cells in the above supplemented IMDM medium were added to the wells of a 96-well plate (10,000 cells/well), and the plates were incubated at 37° C., 5% CO2, for 24 hours. After 24 hours, the medium was removed and replaced with medium not containing any serum (serum-free IMDM), and the plates were incubated at 37° C., 5% CO2, for an additional 24 hours.
After this incubation, the test compounds were added to the plates as follows. A 20 mM stock solution of Cpd. 5 was prepared in DMSO and frozen at −80° C. Aliquots of the stock solution were removed and dilutions were made in serum-free IMDM medium. Final concentrations of Cpd. 5 were 10 μM and 50 μM. Controls containing equivalent amounts of DMSO as the two concentrations of Cpd. 5 (0.05% and 0.25%) were mixed for comparative purposes. The other control was the PI3 kinase inhibitor, LY294002 (obtained from Sigma), final concentration of 50 μM. 100 μl of each test compound solution were then added to 96 well culture plates in duplicate, and the plates were placed back into the incubator and incubated at 37° C., 5% CO2, for 1 hour.
Following this incubation, 100 μl of serum-free IMDM containing either 0 or 400 ng/ml IGF-1 (obtained from Sigma), an Akt phosphorylation promoter, were added, and the plates incubated at 37° C., 5% CO2, for 1 more hour. At the end of this time, the cells were fixed immediately with 4% formaldehyde, refrigerated, and the extent of phosphorylation of Akt determined using the Akt Cellular Activation of Signaling ELISA (CASE™ Kit for AKT S473; SABiosciences, Frederick, Md.) following the manufacturer's protocols. The CASE™ Kit for AKT S473 quantifies the amount of activated (phosphorylated) Akt protein relative to total Akt protein. For further details of the CASE ELISA assay, see Example 6.
The results were calculated as follows. The treatment groups containing IGF-I/DMSO were subtracted from their respective IGF-1/DMSO only groups (positive control). This value was divided by the difference between the respective DMSO only group (negative control) and the respective positive control. This value represents the percent inhibition of Akt phosphorylation attributable to the inhibitor alone since the contribution of DMSO is subtracted out.

[3] = tested on: AU565 breast cancer cell line; experiment: Proliferation of AU565 cancer cells, Promega cell titer assay; conditions: 96 hours, negative number = increase
Protocol: Assays were performed to determine the effect of Cpd. 5 (synthesis described in Example 1) on proliferation of two cancer cell lines. These two cell lines were STTG grade 4 astrocytoma cell line and AU565 breast cancer cell line. Both cell lines were obtained from American Type Culture Collection, Rockville, Md. (ATCC).
To perform the assays, a 50 mM stock solution of Cpd. 5 was prepared in DMSO and frozen at −80° C. Aliquots of the stock solution were removed and 100 μM dilutions were made in Iscove's modified Dulbecco's medium (IMDM; obtained from ATCC) supplemented with 10% fetal bovine serum (FBS) and penicillin/streptomycin solution. Controls containing equivalent amounts of DMSO to the 100 μM solution were mixed for comparative purposes. 100 μl of the resulting solutions were then added to 96 well culture plates in triplicate and placed in a 37° C. incubator with 5% CO2 to warm.
At this point, cells were removed from passage flasks using trypsin and counted using trypan blue to establish cell counts/ml and viability. For all experiments, viability of cells was greater than 95%. Solutions of 4,000 cells/100 μl were prepared in the medium from above and 100 μl of the solutions were added to each well of the plates. The plates were placed back in the incubator and incubated with the compounds for 96 hours.
Following incubation, cell proliferation was assayed by adding 20 μl Promega cell titer aqueous one reagent to each well. […] The plates were incubated at 37° C. for an additional 4-18 hours to allow the colorimetric assay to develop, and the OD of each well was determined in a microplate reader using a 530 nm filter. The OD of wells containing cell titer reagent in culture medium with no cells was subtracted from the OD of all experimental readings.
The % decrease of the total cell titer signal was determined using the following formula. […] The p values were calculated versus diluent controls.

[4] = confluent AU565, 50 μM, 18 hours
[5] = confluent AU565, 50 μM, 24 hours

| SMILES | MEAN % DECREASE of cell titer signal ([1]; confluent AU565, 10 μM, 18 hours) [%] | MEAN % DECREASE of cell titer signal ([1]; confluent AU565, 10 μM, 24 hours) [%] | MEAN % DECREASE of cell titer signal [1, 4] [%] | MEAN % DECREASE of cell titer signal [1, 5] [%] | MEAN % DECREASE of cell titer signal ([1]; confluent AU565, 100 μM, 18 hours) [%] | MEAN % DECREASE of cell titer signal ([1]; confluent AU565, 100 μM, 24 hours) [%] | inhibition at 10 µM ([2]; Homo sapiens, WM 266-4, WM-266-4, 10 μM) [%] | inhibition at 50 µM ([2]; Homo sapiens) [%] | MEAN % INHIBITION OF Akt PHOSPHORYLATION ([2]; WM-266-4, 50 μM, 50 µM) [%] | MEAN % DECREASE of cell titer signal ([3]; AU565, 50 μM) [%] | MEAN % DECREASE of cell titer signal ([3]; AU565, 20 μM) [%] |
| --- | --- | --- | --- | --- | --- | --- | --- | --- | --- | --- | --- |
| COC(=O)C(c1ccc(-c2ccccc2)cc1)C1NC(=O)CNC1=O (centres unmarked) [Cpd. 5, biphenyl-4-yl-(3,6-dioxo-piperazin-2-yl)-acetic acid methyl ester] | −5.61 | −8.87 | −9.73 | −10.79 | −10.69 | −11.05 | 102 | 47 | 55.9 | 13.44 | – |
| O=c1cc(N2CCOCC2)oc2c(-c3ccccc3)cccc12 [LY294002, reference compound] | – | – | 22.25 | 2.94 | – | – | – | 23.1 | – | – | 61.95 |
